One compound from US20250281497A1, “FUSED AMINO PYRIMIDINE COMPOUNDS FOR TREATMENT OF SEIZURE DISORDERS” (Ovid Therapeutics Inc., priority 2024, published 2025) can be followed below.

The test system of assay [1] is KA induced SE. Nature of the assay: KA induced ongoing SE, EEG recording, treatment 2h after KA. The note with it: treatment 2h after KA. The format is in vivo, mice. Here is the method:
EEG recordings and analysis. WT C57Bl/6J adult male mice (12 weeks) were anesthetized with isofluorane and implanted with EEG/EMG electrodes and allowed to recover for 7 days prior to experimentation. […] 2h following KA administration mice were injected with a saturating concentration of diazepam (DZ) 10 mg/kg (IP) and recordings were extended for a further 60 min. […] LabChart 8 software was used for data analysis. Epileptiform activity was identified by changes in the amplitude of electrographic activity characterized by consistent changes in the power of the Fast Fourier transform (FFT) of the EEG and abnormal activity characterized by periods of rhythmic spiking lasting longer than 30s (Moore et al., 2017, supra; Silayeva et al., 2015, supra; Sivakumaran et al., J. Neurosci. 35, 8291-8296 (2015)).
To evaluate the potential of KCC2 activators to terminate ongoing SE, the KA model described above was employed. Mice were injected with KA (20 mg/Kg; IP). […] Spectral data were then subjected to FFT and the total EEG power between 1-100 Hz of the 2h following KA treatment (pre-drug) and 30 min following their injection (post-drug) were compared (FIG. 6B). In mice treated with DZ alone variable effects were observed, from large increases to modest reductions in EEG power, but these effects were not significant (FIG. 6C; pre=1.1±0.2×10^−6, post=4.4±7.4×10^−7 μV^2, p=0.214, n=13-14 mice). […] The latency of the treatments to modify EEG power was examined by measuring the time taken for this parameter to be reduced to 50% (FIG. 6E). […] Finally in mice treated with DZ alone 62% were insensitive to the effects of this agent on EEG power.

Assay [2] has as its target T1, KCC2 (Homo sapiens, UniProt Q9H2X9).
T1 construct: expressed in transfected cells; host or cells: HEK-293 (ATCC CRL-1573)
T1 sequence (Q9H2X9 1-1116 isoform Q9H2X9-2): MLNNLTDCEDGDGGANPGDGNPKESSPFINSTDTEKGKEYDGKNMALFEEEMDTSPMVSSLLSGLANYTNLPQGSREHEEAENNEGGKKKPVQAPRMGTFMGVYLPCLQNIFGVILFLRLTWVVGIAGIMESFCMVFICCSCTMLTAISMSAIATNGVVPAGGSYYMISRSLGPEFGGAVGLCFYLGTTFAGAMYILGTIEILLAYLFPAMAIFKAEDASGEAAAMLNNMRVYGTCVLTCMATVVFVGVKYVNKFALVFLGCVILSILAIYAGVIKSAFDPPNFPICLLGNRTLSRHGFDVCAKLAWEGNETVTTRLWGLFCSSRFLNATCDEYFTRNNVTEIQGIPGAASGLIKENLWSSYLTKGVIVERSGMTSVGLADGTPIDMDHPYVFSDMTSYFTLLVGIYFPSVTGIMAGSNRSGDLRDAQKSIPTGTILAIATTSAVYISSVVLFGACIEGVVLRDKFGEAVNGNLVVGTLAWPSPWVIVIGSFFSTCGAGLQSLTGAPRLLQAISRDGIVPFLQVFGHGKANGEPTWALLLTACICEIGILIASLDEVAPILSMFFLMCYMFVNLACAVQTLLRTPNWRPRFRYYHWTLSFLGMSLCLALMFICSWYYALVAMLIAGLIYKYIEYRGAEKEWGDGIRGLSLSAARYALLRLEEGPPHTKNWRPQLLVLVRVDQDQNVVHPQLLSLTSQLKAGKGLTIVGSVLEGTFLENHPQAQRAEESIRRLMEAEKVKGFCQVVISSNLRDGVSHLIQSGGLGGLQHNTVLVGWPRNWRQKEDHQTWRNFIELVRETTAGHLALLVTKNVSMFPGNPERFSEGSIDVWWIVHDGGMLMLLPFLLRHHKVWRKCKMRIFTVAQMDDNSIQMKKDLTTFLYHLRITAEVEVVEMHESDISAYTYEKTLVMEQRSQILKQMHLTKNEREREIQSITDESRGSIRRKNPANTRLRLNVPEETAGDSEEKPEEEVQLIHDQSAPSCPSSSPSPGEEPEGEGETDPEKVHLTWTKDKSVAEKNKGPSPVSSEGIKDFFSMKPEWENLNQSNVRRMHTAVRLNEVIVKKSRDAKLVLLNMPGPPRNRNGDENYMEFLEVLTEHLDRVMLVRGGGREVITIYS
Nature of the assay: Cellular thermal shift assay (CETSA) in transfected HEK-293 cells. The assay is classed as binding. The note with it: 30 μM, 90 min, heated 37-58° C. How it is done: Determining if compounds in SSA directly interact with KCC2. This was tested using a cellular thermal shift assay (CETSA), which measures the ability of a drug to modify the thermal stability of its target in whole cells (Kawatkar et al., ACS Chem. Biol. 14, 1913-1920 (2019); Martinez et al., Sci Rep 8, 9472 (2018)).
2×10^6 transfected HEK-293 cells were incubated with 30 μM drug or vehicle for 90 min at 37° C. and then heated from 37-58° C. for 5 min. Cells were rapidly chilled to 25° C. and NP40 was added to a final concentration […] to snap freezing in liquid nitrogen. Following 5 freeze/thaw cycles lysates were centrifuged at 12,000×g to remove denatured proteins and associated cell debris.
Aliquots of HEK-293 cells expressing KCC2 were exposed to 30 μM SSA, heated from 37-55° C. The remaining level of soluble native KCC2 at each temperature was measured by immunoblotting and normalized to the level seen at 37° C. which was given a value of 1. […] This panel included protein kinase C isoforms, OSR1, SPAK (STK39) and with-no-lysine kinases (WNK), all of which phosphorylate KCC2 on multiple residues to indirectly modify its activity (Kahle et al., 2013, supra; Smalley et al., 2020, supra).

In the case of `C[C@@H]1CN(c2nc3c(c(Nc4ccc(C5CCCCC5)cc4)n2)COC3)CCO1` [Compound A, (R)—N-(4-cyclohexylphenyl)-2-(2-methylmorpholino)-5,7-dihydrofuro[3,4-d]pyrimidin-4-amine], the “mice insensitive to DZ effects on EEG power” value in assay [1] is reported as “abolished”. In addition, in assay [2], the “thermal stability of KCC2 / direct binding (CETSA)” value is “capable of directly binding to KCC2”.
